The values below come from US9828351B2, “Enzyme interacting agents” (MONASH UNIVERSITY, priority 2014, dated 2017).

The target of assay [1] is T1, recombinant human SphK2 (Homo sapiens, UniProt Q9NRA0).
T1 construct: purchased Johnson and Johnson
T1 sequence (Q9NRA0 1-654): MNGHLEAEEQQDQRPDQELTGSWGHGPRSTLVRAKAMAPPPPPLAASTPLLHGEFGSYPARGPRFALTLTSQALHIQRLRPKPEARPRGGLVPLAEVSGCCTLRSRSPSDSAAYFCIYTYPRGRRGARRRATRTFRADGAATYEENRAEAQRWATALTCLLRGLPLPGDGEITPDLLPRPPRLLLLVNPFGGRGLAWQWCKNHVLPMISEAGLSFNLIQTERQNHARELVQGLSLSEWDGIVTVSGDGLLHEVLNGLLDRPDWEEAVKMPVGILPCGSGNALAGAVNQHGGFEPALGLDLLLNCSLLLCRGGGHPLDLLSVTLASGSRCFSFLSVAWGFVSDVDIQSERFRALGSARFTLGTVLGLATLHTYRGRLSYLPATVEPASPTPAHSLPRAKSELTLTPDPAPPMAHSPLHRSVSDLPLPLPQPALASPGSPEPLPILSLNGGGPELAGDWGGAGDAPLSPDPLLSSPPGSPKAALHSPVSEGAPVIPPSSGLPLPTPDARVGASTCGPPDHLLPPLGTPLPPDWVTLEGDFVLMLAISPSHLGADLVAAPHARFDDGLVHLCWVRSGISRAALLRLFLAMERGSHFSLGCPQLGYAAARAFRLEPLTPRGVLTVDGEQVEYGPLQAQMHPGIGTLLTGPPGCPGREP
In words: SphK2 activity assay (32P-labelled S1P production). The settings on record: 10 μM compound; % of activity compared to control (DMSO vehicle only); read-out: SphK2% actvity at 10 μm. It counts as biochemical. How it is done: (§1) The SphK assays employed, measure SphK activity through the production of ^32P-labelled S1P following the addition of exogenous Sph and [γ^32P] ATP.
(§2) Activities of SphK1 and SphK2 were determined using identical assay conditions with the exception that SphK1 assays used 3 ng/assay recombinant his tagged human SphK1 (made in the lab in a baculovirus system using insect cells), while SphK2 assays used 30 ng/assay recombinant human SphK2 (purchased by Johnson and Johnson).
(§3) Compounds were dissolved in DMSO at 10 mM, the mixture was vortexed (and sonicated if necessary). Stock solutions were kept at 4° C. until used.
(§4) Aliquots were made containing 100 μM drug compound. These aliquots were then diluted in assay buffer: 100 mM tris/HCl pH 7.4, 100 mM NaCl, 1 mM sodium orthovanadate, 10 mM NaF to make up a 10 μM solution.
(§5) Recombinant enzyme was diluted in assay buffer (above) to make up a final concentration of 0.03 ng/μL (SphK1) or 0.33 ng/μL (SphK2).
(§6) 40 μL recombinant enzyme was added to an Eppendorf® Safe-Lock® microcentrifuge tube. This was followed by the addition of drug compound from prepared aliquots, before adding ATP, [γ^32P]ATP and Sph. Note: ATP stock is made up in 1M Tris pH 7.4 and 200 mM MgCl2. This allows ATP to complex with Mg and be available as a substrate.
(§7) The rest of the reaction mixture was then added to the enzyme sample (Table 1). All reactions were performed as triplicates.
(§8) Reaction mixture was prepared with sufficient volume to assay all of the required samples. To do this, each of the volumes shown was multiplied by n+1, where n is the number of samples to be assayed. Assay buffer used is made up of 100 mM tris/HCl pH 7.4, 100 mM NaCl, 1 mM sodium orthovanadate and 10 mM NaF.
(§9) The mixture was then incubated at 37° C. for 20 min (SphK1)/45 min (SphK2).
(§10) To the 100 μL assay mixture, add 270 μl of chloroform/methanol/conc. HCl (100:200:1).
(§11) 20 μL of 5 M KCl was then added to the assay mixture.
(§12) 70 μL of chloroform was added to create phase separation. The solution was vortexed to mix well.
(§13) The solution was then centrifuged for 5 min at 13,000×g to fully separate the phases.
(§14) The upper aqueous/methanol phase was separated by aspiration.
(§15) 50 μL of the remaining lower chloroform phase […] was applied onto the TLC plate by repeatedly spotting a few microliters of liquid (<5 mm diameter circle) between each sample spot with the pipette tip. The liquid was then allowed to absorb into the plate before drying with a stream of air.
(§16) The TLC plate was developed in a glass TLC developing tank with 1-butanol/ethanol/glacial acetic acid/H2O (8:2:1:2) until the mobile phase is within 1 cm of the top of the TLC plate.
(§17) The TLC plate was then exposed to a storage phosphor screen overnight. Storage phosphor screens work by capturing images produced by ionising radiation (e.g. ^32P). The phosphorimager stimulates the screen which uses lasers to convert the latent signal to light. Light is proportional to the amount of radioactivity in the sample. The image is then quantified using standard quantification software (ImageQuant™). Whatman paper with the assay mixture dilutions, was included to assist quantification of the phosphor signal.
(§18) Once the storage phosphor screen was read using the phosphorimager, S1P spots, which have an Rf of 0.7 with the mobile phase employed, were quantified.
(§19) The S1P spot intensity can be converted to the amount of phosphate transferred/min/mg protein.

Assay [2] concerns the target T2, recombinant his tagged human SphK1 (Homo sapiens, UniProt Q9NYA1).
T2 construct: His tag; made in house; host or cells: insect cells (baculovirus system)
Nature of the assay: SphK1 activity assay (32P-labelled S1P production). It counts as biochemical. Conditions: 10 μM compound; % of activity compared to control (DMSO vehicle only). How it is done:
as §1, §2, §3, §4, §5, §6, §7, §8, §9, §10, §11, §12, §13, §14, §15, §16, §17, §18, §19

For assay [3], the target named is T3, Dihydroceramide Desaturase-1 (Des1) (Homo sapiens, UniProt O15121).
T3 construct: These modifications included the use of parental Jurkat cells; endogenous in cells; host or cells: parental Jurkat cells
T3 sequence (O15121 1-323): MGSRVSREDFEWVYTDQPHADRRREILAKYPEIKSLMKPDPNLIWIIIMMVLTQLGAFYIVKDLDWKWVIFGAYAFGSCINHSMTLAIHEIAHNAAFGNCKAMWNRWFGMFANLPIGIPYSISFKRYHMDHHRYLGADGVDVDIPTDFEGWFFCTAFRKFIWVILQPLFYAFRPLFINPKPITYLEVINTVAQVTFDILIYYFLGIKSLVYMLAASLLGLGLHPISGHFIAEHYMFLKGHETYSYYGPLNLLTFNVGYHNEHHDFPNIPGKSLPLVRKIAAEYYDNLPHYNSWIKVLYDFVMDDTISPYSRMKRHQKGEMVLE
In words: Dihydroceramide desaturase-1 (Des1) activity by HPLC in intact Jurkat cells labeled with DhCer-C6-NBD. It counts as cell-based. Conditions: intact Jurkat cells; read-out: Des 1 IC50. As for the experimental part:
Measurement of Dihydroceramide Desaturase-1 (Des1) Activity:
These modifications included the use of parental Jurkat cells, 0.5% serum in the culture media, and cell harvesting via centrifugation at 500×g to maximise ceramide extraction. Extracted samples (50 ul) were analysed on a Waters HPLC coupled to a fluorescence detector using a 30 cm C18 reverse-phase column eluted with 1 ml/min 20% H2O and 80% acetonitrile, both with a 0.1% of trifluoroacetic acid.

T2 sequence (Q9NYA1 whole entry): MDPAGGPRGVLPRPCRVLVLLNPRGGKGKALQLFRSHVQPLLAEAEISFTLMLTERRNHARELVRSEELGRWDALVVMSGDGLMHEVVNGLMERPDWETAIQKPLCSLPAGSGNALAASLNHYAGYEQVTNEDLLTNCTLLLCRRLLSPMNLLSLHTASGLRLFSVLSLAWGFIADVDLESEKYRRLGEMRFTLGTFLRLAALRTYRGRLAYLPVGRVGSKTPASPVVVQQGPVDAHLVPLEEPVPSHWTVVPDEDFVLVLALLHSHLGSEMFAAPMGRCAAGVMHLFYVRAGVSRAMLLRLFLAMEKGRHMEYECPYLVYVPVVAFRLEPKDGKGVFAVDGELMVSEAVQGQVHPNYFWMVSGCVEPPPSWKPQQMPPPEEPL

Consider `Oc1ccc(Nc2nc(-c3ccc(Cl)cc3)cs2)cc1` [SKI-II, reference compound], for which, in assay [1], the remaining activity at 10 µM was 80 to 100%. Moreover, the activity at 10 µM in assay [2] is 50 to 80%. Also, the IC50 in assay [3] lay in the range of 0.1 to 1 µM.

By IC50 is commonly meant the concentration that gives 50% inhibition.
